Test results: PubChem BioAssay (NCI)
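Briefly, cells in 96-well plates were exposed to five compound concentrations for 48 h, and endpoints were estimated by linear interpolation. Abbreviation: GI50, concentration required for 50% inhibition of growth. The concentration for full growth arrest is given as TGI.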 Where a SMILES comes first, the peptide text is derived from it. The star is where a group is joined. Boc = CC(C)(C)OC(=O)*

Experiments:
Test in all cases: DTP human tumour cell line panel, 48 h
K-562 leukemia = tested on: K-562 leukemia
SF-295 CNS = tested on: SF-295 CNS
HCT-116 colon = tested on: HCT-116 colon
SK-MEL-2 melanoma = tested on: SK-MEL-2 melanoma
U251 CNS = tested on: U251 CNS
A498 renal = tested on: A498 renal
SF-268 CNS = tested on: SF-268 CNS
SR leukemia = tested on: SR leukemia
MDA-N = tested on: MDA-N
ACHN renal = tested on: ACHN renal

Row | Structure (SMILES) | TGI (K-562 leukemia) | TGI (SF-295 CNS) | TGI (HCT-116 colon) | TGI (SK-MEL-2 melanoma) | TGI (U251 CNS) | TGI (A498 renal) | TGI (SF-268 CNS) | TGI (SR leukemia) | TGI (MDA-N) | TGI (ACHN renal) | GI50 (SR leukemia) | GI50 (SF-295 CNS) | GI50 (HCT-116 colon) | GI50 (SK-MEL-2 melanoma) | GI50 (ACHN renal) | GI50 (A498 renal) | GI50 (SF-268 CNS) | GI50 (K-562 leukemia) | GI50 (U251 CNS)
1 | O=C(NC(Cc1ccc(I)cc1)C(=O)O)c1ccc(I)cc1 (stereo not given) | > 100 µM | > 100 µM | > 100 µM | > 100 µM | > 100 µM | > 100 µM | > 100 µM |  |  |  |  |  |  |  |  |  |  |  | 
2 | O=C(CCCN1CCC2(CC1)CC(=O)N(N1CCOCC1)C2=O)c1ccccc1 | > 100 µM | > 100 µM | > 100 µM |  | > 100 µM |  | > 100 µM | > 100 µM | > 100 µM | > 100 µM |  |  |  |  |  |  |  |  | 
3 | C=CCOC(=O)CC[N+]1=CCC(c2ccccc2)(c2ccccc2)O1 | > 100 µM | > 100 µM | > 100 µM | > 100 µM | > 100 µM | > 100 µM | > 100 µM |  | > 100 µM | > 100 µM |  |  |  |  |  |  |  |  | 
4 | CC(C)(C)OC(=O)NCC(=O)NCC(=O)NCC(=O)NCC(=O)O (Boc-GGGG-OH) | > 100 µM | > 100 µM | > 100 µM |  | > 100 µM | > 100 µM | > 100 µM | > 100 µM |  | > 100 µM |  |  |  |  |  |  |  |  | 
5 | COc1ccc2cc(-c3ccc(-c4ccc(C(=N)N)s4)s3)ccc2c1 |  | 17.6 µM | 4.11 µM | 6.7 µM |  | 42.3 µM | 4.97 µM | 3.38 µM |  | 8.76 µM | 0.851 µM | 5.07 µM | 2.08 µM | 2.66 µM | 3.06 µM | 14.3 µM | 2.1 µM |  | 
6 | COc1ccc2nc3cc(Cl)ccc3c(NCCCNCCCNc3c4ccc(Cl)cc4nc4ccc(OC)cc34)c2c1 | 15.2 µM | 0.183 µM |  | 0.15 µM | 0.13 µM | 0.463 µM |  | 2.73 µM | 0.173 µM | 0.174 µM |  |  |  |  |  |  |  |  | 
7 | c1ccc2c(c1)NC(C1OC3CCCN3C1C1Nc3ccccc3S1)S2 (stereo not given) | > 100 µM | > 100 µM | > 100 µM |  | > 100 µM | > 100 µM | > 100 µM | > 100 µM |  | > 100 µM |  |  |  |  |  |  |  |  | 
8 | O=C1C=CC(=O)N1Nc1ccc([N+](=O)[O-])cc1[N+](=O)[O-] | > 66.2 µM | > 100 µM | > 100 µM | > 100 µM | > 100 µM | > 100 µM | > 100 µM | > 63.1 µM |  | > 100 µM |  |  |  |  |  |  |  |  | 
9 | COc1cc([N+](=O)[O-])c(OC)cc1-c1nc2sc(Cl)cn2c1/C=N/Nc1ccccn1 | > 50 µM | 41.8 µM |  | > 50 µM | 14.3 µM | 19.4 µM | > 50 µM | 12.1 µM |  | 16.9 µM | 0.0877 µM | 12.4 µM |  | > 50 µM | 8.43 µM | 8.95 µM | 19.2 µM | > 50 µM | 7.65 µM
10 | Cc1cn(C2OC(C)(CO)C(O)C2O)c(=O)[nH]c1=O (stereo not given) | > 100 µM | > 100 µM | > 100 µM | > 100 µM | > 100 µM | > 100 µM | > 100 µM | > 100 µM |  | > 100 µM |  |  |  |  |  |  |  |  | 
11 | N#C/C(=C\c1cc(Br)c(O)c(Br)c1)c1cccnc1 | > 100 µM | 46.7 µM | > 100 µM | 44.4 µM | 35.6 µM |  | > 100 µM | 76.5 µM | > 100 µM | > 100 µM |  |  |  |  |  |  |  |  | 
